Source: US11603515B2, “Cell culture substrate, cancer cell aggregate and method for manufacturing same using said substrate, and drug screening method using said cancer cell aggregate” (NATIONAL UNIVERSITY CORPORATION HOKKAIDO UNIVERSITY, priority 2017, dated 2023)

System: microtumor consisting of PCI-55 cells
Assay: Evaluation of anticancer agent using microtumors (morphological change and molecular expression)
Format: cell-based, human
Method: A total of six types of cell culture substrates with Roughness (+) or Roughness (−) of 30, 95, or 300 μm in spot diameter were used to culture human pancreatic ductal adenocarcinoma cell line PCI-55. Immediately before culturing the cells, each of the cell culture substrates was immersed in distilled water for about 30 minutes to detach the polyparaxylene layer. Then, the cell culture substrate was washed using water, sterilized with 70% ethanol, and air dried. The cell culture substrate was then fixed to the inner bottom of a culture dish (Asnol petri dish, AS ONE) with 40 mm in diameter and 13.5 mm in depth via Vaseline. After adding DMEM and washing the cell culture substrate for three times, 3×10^6 of PCI-55 cells suspended in 3 mL of DMEM were seeded on each cell culture substrate, and cultured at 37 degrees Celsius overnight to for 48 hours.
Morphological change in microtumors was observed, by adding nocodazole known as an anticancer agent with microtubule polymerization inhibitory activity to a culture medium of the microtumor consisting of PCI-55 cells formed on the cell culture substrate 1 in Example 2 so that the final concentration becomes 1 μM.

[1] = nocodazole 1 μM, 24 hours after treatment, fluorescence images (FIG. 49)

COC(=O)Nc1nc2ccc(C(=O)c3cccs3)cc2[nH]1 [nocodazole]
Cell-in-cell structure of the microtumor [1]: destructed
Membranous expression of α-tubulin in the microtumor [1]: disappeared
Release of cells from the inner microtumor [1]: a number of viable cells were scattered so as to overflow from the inner microtumor
Adhesion of microtumor to the spot on the cell culture substrate / morphology (nocodazole final concentration 1 μM, PCI-55 microtumor on cell culture substrate 1, time-lapse DIC (FIG. 48)): prevented from adhering to the spot on the cell culture substrate, and formed spheroidal morphology
Accumulation of Annexin V on the surface of microtumor (dead cell phenotype) (nocodazole treatment, Annexin V and EthD time-lapse images (FIG. 50)): reduced the accumulation of Annexin V on the surface of microtumor
